Assay results taken from a melting point compilation (Tetko et al.; mined from patent text by program, amines drawn as free bases though some values may be those of a salt).

SMILES | melting point [°C]
O=C1CCC2(Cc3ccc(Br)cc3)C(=O)N(c3cc(Cl)cc(Cl)c3)C(=O)N12 (configuration not stated) | 230
CC[C@@H]1N(c2ccc(C#N)c(C(F)(F)F)c2)C(=O)C[C@]1(C)O | 137 to 139
COc1ccc(C(=O)NC(=O)Nc2ccc3c(c2)/C(=C/c2ccc[nH]2)C(=O)N3)cc1 | 278 to 283
O=C(c1ccccc1CBr)c1cc(F)ccc1CBr | 118 to 119
NS(=O)(=O)Cc1cccc2c1C(=O)OC2 | 192 to 195
CC(=O)Cc1ccc(OCc2ccccc2)cc1 | 50 to 54
CC(C)(C#N)c1c(Cl)cc(-n2ncc(=O)[nH]c2=O)cc1Cl | 180
COc1cc2c(cc1OC)N(C)C(=O)CN=C2c1cccnc1 | 177 to 179
CN(CCc1ccccc1)C(=O)Cn1cc(C(=O)O)c2cc(OCc3ccccc3)ccc21 | 182 to 185
CC(C)(O)C(O)c1ccc(-c2ccc(/C(=C/C3CCOCC3)c3ccc(S(=O)(=O)C4CC4)cc3)[nH]2)nc1 (configuration not stated) | 196 to 197
C=C(C)COc1ccc(Br)cc1CN(CC)c1ccc(C(=O)NS(=O)(=O)c2c(C)noc2C)nn1 | 120
CC1=C(Cc2ccc(-c3ccc(N(C)C)cc3)cc2)C(=O)c2ccccc2C1=O | 170 to 171
OCC1C=CC(n2cnc3c(O)ncnc32)O1 (configuration not stated) | > 310
CC(=O)Oc1c(C)cc(Oc2ccc3nc(CO)n(C)c3n2)c(C)c1C | 179 to 180
Cc1ncc2c(c1C(=O)O)COc1ccccc1C2=O | 216 to 218
COCCc1nc2c(N)nc3ccccc3c2n1CC(C)(C)CNC(=O)c1ccccc1 | 103 to 125
CC(=O)Cc1ccc2c(c1)-c1[nH]c3ccc(C(F)(F)F)cc3c1CC(=O)N2 | 295 to 297
CS(=O)(=O)c1ccc(C(=O)C2C(=O)CCCC2=O)c(Cl)c1C1=NOC2OCCC12 (configuration not stated) | 119
COC(=O)C(Sc1ccccc1)c1ccc(Oc2ccc(Cl)cc2)cc1 (configuration not stated) | 64 to 68.5
NC(=O)Nc1ccc(OC(F)C(F)(F)F)cc1 (configuration not stated) | 167 to 168
COc1ccc(O)c2[nH]c(C)c(C)c12 | 159
O=C(O)c1cn(C2CC2)c2c(Cl)c(N3CC4CCCC3CN4)c(F)cc2c1=O (configuration not stated) | 217 to 220
CC(C)(C)Sc1c(CC(C)(C)C(=O)O)n(Cc2ccc(Cl)cc2)c2ccc(OCc3cccc(Cl)n3)cc12 | 206 to 207
CCCCCCCCCCCC(=O)N[C@@H](C)C(=O)N[C@H](CCC(=O)O)C(N)=O | 163

SMILES | melting point [°C]
CCOC(=O)c1nc(NC)sc1-c1cn2ccc(C)cc2n1 | 210 to 213
Cc1cc(C2=CCN(S(=O)(=O)C(C)(C)C(=O)O)CC2)ccc1-c1cnc2ccccc2c1 | 222 to 224
COc1cccc(/C(=C\C=C\C(=O)NCCCCc2cccnc2)c2ccccc2)c1 | 89 to 91
CC1=C(c2ccc(Cl)cc2)n2ncc3c(=O)[nH]c(=S)n(c32)C1 | 283 to 285
CNC(=O)N(O)CCNC(=O)c1cccc(Oc2ccccc2)c1 | 161 to 162
Cc1cc2c(cc1C1=NNC(=O)CC1)OCC(=O)N2C | 211 to 213
COc1ccc2c3c(c(=O)oc2c1)CN(CCN1CC2CCC1CC2)CC3 | 112 to 113
CSc1nn2c(N)cc(C)nc2c1S(=O)(=O)c1ccccc1C | > 250
CC(C)n1c(C=CC=O)c(-c2ccc(F)cc2)c(-c2ccc(F)cc2)c1C=CC=O | 207
Nc1c(NCCCOc2cccc(C3OCCO3)c2)c(=O)c1=O | 209 to 210
CCCCc1nc(CO)c(C(=O)ON2C(=O)CCC2=O)n1Cc1ccc(-c2ccccc2C(=O)OC(C)(C)C)cc1 | 107 to 109
CNC1(c2cccs2)CCC(=O)CC1 | 72 to 74
COc1ccc(Oc2cccc(Cl)n2)cc1 | 63 to 65
CC(C)CCS(=O)(=O)NC(=O)CCc1cc(C2CC2)nn1Cc1ccc(C(F)(F)F)cc1Cl | 160 to 162
COc1cnc(CSc2nc3cc(OC(F)(F)C(F)F)ccc3[nH]2)cc1OC | 125 to 127
Cn1c(=O)c2c(ncn2CCCCC(=O)CBr)n(C)c1=O | 106 to 109
COc1ccc(C[C@H](NC(=O)OCc2ccccc2)C(=O)CCl)cc1 | 107
COc1cc2ncnc(Nc3cccc(Br)c3)c2cc1OC(C)=O | 238
COc1ccc(CN2CCNCC2)cc1 | 99 to 101
CCCCCCCCCCC#Cc1cccc([C@H]2O[C@@H]2CO)c1 | 41 to 42
COc1ccccc1C1(O[Si](C)(C)C)C(=O)Nc2ccc(Cl)cc21 (configuration not stated) | 185 to 187
COc1ccc(C2(C#N)CCC(=O)CC2)cc1OC1CCCC1 | 111 to 112
CC1=C2c3c(cnc4cc(Cl)ccc34)NC2C(C)CN1 (configuration not stated) | 188 to 190
Cc1ccc(S(=O)(=O)OCCCc2c[nH]c3ccc(F)cc23)cc1 | 74

SMILES | melting point [°C]
CC(C)(C)C(=O)Nc1ccc(Cl)cc1C(=O)C[C@H]1C(=O)OCN1C(=O)OCc1ccccc1 | 113 to 116
COc1ccc([C@H](C)NC(=O)c2cccnc2Oc2ccc(F)cc2)cc1 | 97 to 99
O=C(N[C@@H](Cc1ccccc1)C(=O)O)C(CS)C(F)(F)F (some centres not stated) | 133 to 134
Brc1ccc(OC2CCOCC2)cc1 | 53 to 55
CC(=O)O[C@@H]1[C@@H](OC(C)=O)[C@H](C)O[C@@H](OC[C@H]2O[C@H](Br)[C@H](OC(C)=O)[C@@H](OC(C)=O)[C@@H]2OC(C)=O)[C@@H]1OC(C)=O | 120 to 125
O=C(CP(=O)(O)O)NCc1ccccc1 | 130 to 134
CCC(=O)OCC12CCC(=O)C=C1CCC1C2CCC2(C)C(OC(=O)CC)CCC12 (configuration not stated) | 82 to 84
CC(=O)CC(=O)Nc1ccc(-c2ncn(-c3ccc(OC(F)(F)F)cc3)n2)cc1 | 159 to 164
COC(=O)CCCCc1cc2nc(Cl)ccc2n1S(=O)(=O)c1cc(C)cc(C)c1 | 126
CCNC(=O)Nc1snc(C)c1C(=O)OCC | 150 to 151
COC(=O)CCn1c(C)c(Cn2ccnc2)c2cc(CCC(=O)O)ccc21 | 134 to 137
CCOc1nc(C(F)(F)F)cc(=O)n1-c1cc(OC(C)C)c(Cl)cc1F | 101 to 103
CC(C)(C)CC(C)(C)c1cc(CO)c(O)c(CO)c1 | 76 to 77
CC(=NNC(=O)C1CCCCC1)c1ccncc1 | 195
CCC(=O)c1ccc(-c2ccc(=O)[nH]n2)cc1 | 202 to 205
CCc1cn(C2CC(O)C(CNC(=O)CS(=O)(=O)c3ccccc3)O2)c(=O)[nH]c1=O (configuration not stated) | 218 to 219
COc1ccc2[nH]cc(C3=CCC(N4CCN(c5cccc(Cl)n5)CC4)CC3)c2c1 (configuration not stated) | 210 to 213
COCCOc1ccccc1OS(=O)(=O)NC(=O)Nc1nc(OC)cc(OC)n1 | 106 to 108
CC(=O)NNc1ccnc2c(NC(=O)c3c(Cl)cccc3Cl)cc(C(F)(F)F)cc12 | 174 to 178
Cc1oc(-c2ccccc2)nc1COc1cccc(CSc2cccc(C(=O)O)c2)c1 | 129 to 130
CCCC1=C(C#N)C(c2ccccc2Cl)c2c(n[nH]c2C2CC2)N1 (configuration not stated) | 270
CNC(CC(=O)O)c1ccccc1 (configuration not stated) | 167 to 168
Cc1cc(C(=O)NC(=O)NC2CCCCC2)no1 | 180
O=C(C=Cc1cccc(Br)c1)Nc1ccc(CN2CCCCC2)cc1 | 144 to 145
